Reference: article PMC12469827, “Targeting G6PD with Benzimidazole and Thiazole Derivatives Suppresses SIRT 2 and VEGF Expression and Induces Cytotoxicity in Glioma Cells” (International Journal of Molecular Sciences, 2025)

What was measured:
[1] = molecular target: T1, Glucose-6-Phosphate Dehydrogenase (G6PD) (Homo sapiens, UniProt P11413); assay: residual activity of purified recombinant enzyme (NADPH at […] nm) after […] h incubation; supported by intrinsic fluorescence (minimal CD change); format: biochemical
T1 sequence (P11413 2-515): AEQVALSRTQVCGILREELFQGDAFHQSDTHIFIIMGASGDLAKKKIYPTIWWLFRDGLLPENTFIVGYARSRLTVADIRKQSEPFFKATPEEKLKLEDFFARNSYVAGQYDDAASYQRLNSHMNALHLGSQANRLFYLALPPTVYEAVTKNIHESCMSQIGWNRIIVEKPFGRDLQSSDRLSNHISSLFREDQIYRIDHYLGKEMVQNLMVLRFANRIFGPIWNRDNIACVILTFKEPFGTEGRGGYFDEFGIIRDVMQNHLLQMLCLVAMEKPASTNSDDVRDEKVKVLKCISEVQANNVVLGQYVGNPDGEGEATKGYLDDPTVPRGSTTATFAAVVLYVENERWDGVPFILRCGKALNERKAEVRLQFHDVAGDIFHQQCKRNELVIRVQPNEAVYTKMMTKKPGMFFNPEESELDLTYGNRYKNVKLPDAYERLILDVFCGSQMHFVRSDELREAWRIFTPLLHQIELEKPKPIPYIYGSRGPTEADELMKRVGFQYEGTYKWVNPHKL

[2] = molecular target: T1, Glucose-6-Phosphate Dehydrogenase (G6PD); assay: residual activity of purified recombinant enzyme (NADPH at […] nm) after […] h incubation; supported by CD and intrinsic fluorescence; format: biochemical

Structure (SMILES): Cc1cnc(C[S+]([O-])c2nc3cc([N+](=O)[O-])ccc3[nH]2)c(C)c1OCC(F)(F)F (stereo not drawn) [BZM-9]
- IC50 [1]: 42 µM

Structure (SMILES): O=C(Nc1ccc(Cl)cc1)Nc1ncc([N+](=O)[O-])s1 [CNZ-3]
- IC50 [2]: 121 µM

Structure (SMILES): O=[N+]([O-])c1ccc2nc([S+]([O-])Cc3ccccn3)[nH]c2c1 (stereo not drawn) [BZM-7]
- IC50 ([2]; read-out: IC50): 40 µM
